Test results published in ChEMBL document CHEMBL5550185, “Targeting hTERT Promoter G-Quadruplex DNA Structures with Small-Molecule Ligand to Downregulate hTERT Expression for Triple-Negative Breast Cancer Therapy” (J Med Chem, 2024).
Activity calls are given as the source filed them. The calls are words filed in the database; no cut-off is given here.

Key:
DNA = assay: Binding affinity to Ds26 duplex DNA (unknown origin) assessed as thermal stability by measuring change in melting temperature at 400 uM […]; type: nucleic-acid assay
PC-3 = assay: Cytotoxicity against telomerase-positive human PC-3 cells assessed as inhibition of cell growth incubated for 48 hrs by MTT assay; type: functional, cell-based; details: PC-3, 48 h
Quadruplex DNA [1] = assay: Binding affinity to RET G4 DNA (unknown origin) assessed as thermal stability by measuring change in melting temperature at 400 uM […]; type: nucleic-acid assay
Quadruplex DNA [2] = assay: Binding affinity to c-MYC Pu27 G4 DNA (unknown origin) assessed as dissociation constant by ITC analysis; type: nucleic-acid assay
Quadruplex DNA [3] = assay: Binding affinity to c-MYC Pu27 G4 DNA (unknown origin) assessed as change in enthalpy at 400 uM by ITC analysis; type: nucleic-acid assay
Quadruplex DNA [4] = assay: Binding affinity to Telo21 G4 DNA (unknown origin) assessed as dissociation constant by ITC analysis; type: nucleic-acid assay
Quadruplex DNA [5] = assay: Binding affinity to Telo21 G4 DNA (unknown origin) assessed as change in enthalpy at 400 uM by ITC analysis; type: nucleic-acid assay
Homo sapiens = species on record: Homo sapiens; assay: Binding affinity to antisense i-hTERT DNA assessed as thermal stability by measuring change in melting temperature at 400 uM […]
Quadruplex DNA [6] = assay: Binding affinity to hTERT G4 DNA assessed as change in enthalpy at 400 uM by ITC analysis; type: nucleic-acid assay; details: Homo sapiens
Quadruplex DNA [7] = assay: Binding affinity to hTERT G4 DNA assessed as change in gibbs free energy at 400 uM by ITC analysis; type: nucleic-acid assay; details: Homo sapiens
[8] = Selectivity ratio of binding affinity to human TERT G4 DNA to binding affinity to VEGF G4 DNA (unknown origin)
Quadruplex DNA [9] = assay: Binding affinity to human TERT G4 DNA assessed as adduct formation by measuring appearance of new peak at 5 uM by ultraviolet spectrophotometric titration method; type: nucleic-acid assay
MDA-MB-231 [10] = assay: Downregulation of hTERT mRNA expression in human MDA-MB-231 cells measured after 48 hrs by qRT-PCR analysis; type: functional, cell-based; details: dose 0-1.5 µM
[11] = target: Telomerase reverse transcriptase (Homo sapiens) (UniProt O14746); assay: Inhibition of telomerase activity in human MDA-MB-231 cells at >=1 uM incubated for 30 mins by SYBR Gold staining based TRAP assay; type: cell-based
Telomerase reverse transcriptase (Homo sapiens), sequence (O14746 whole entry): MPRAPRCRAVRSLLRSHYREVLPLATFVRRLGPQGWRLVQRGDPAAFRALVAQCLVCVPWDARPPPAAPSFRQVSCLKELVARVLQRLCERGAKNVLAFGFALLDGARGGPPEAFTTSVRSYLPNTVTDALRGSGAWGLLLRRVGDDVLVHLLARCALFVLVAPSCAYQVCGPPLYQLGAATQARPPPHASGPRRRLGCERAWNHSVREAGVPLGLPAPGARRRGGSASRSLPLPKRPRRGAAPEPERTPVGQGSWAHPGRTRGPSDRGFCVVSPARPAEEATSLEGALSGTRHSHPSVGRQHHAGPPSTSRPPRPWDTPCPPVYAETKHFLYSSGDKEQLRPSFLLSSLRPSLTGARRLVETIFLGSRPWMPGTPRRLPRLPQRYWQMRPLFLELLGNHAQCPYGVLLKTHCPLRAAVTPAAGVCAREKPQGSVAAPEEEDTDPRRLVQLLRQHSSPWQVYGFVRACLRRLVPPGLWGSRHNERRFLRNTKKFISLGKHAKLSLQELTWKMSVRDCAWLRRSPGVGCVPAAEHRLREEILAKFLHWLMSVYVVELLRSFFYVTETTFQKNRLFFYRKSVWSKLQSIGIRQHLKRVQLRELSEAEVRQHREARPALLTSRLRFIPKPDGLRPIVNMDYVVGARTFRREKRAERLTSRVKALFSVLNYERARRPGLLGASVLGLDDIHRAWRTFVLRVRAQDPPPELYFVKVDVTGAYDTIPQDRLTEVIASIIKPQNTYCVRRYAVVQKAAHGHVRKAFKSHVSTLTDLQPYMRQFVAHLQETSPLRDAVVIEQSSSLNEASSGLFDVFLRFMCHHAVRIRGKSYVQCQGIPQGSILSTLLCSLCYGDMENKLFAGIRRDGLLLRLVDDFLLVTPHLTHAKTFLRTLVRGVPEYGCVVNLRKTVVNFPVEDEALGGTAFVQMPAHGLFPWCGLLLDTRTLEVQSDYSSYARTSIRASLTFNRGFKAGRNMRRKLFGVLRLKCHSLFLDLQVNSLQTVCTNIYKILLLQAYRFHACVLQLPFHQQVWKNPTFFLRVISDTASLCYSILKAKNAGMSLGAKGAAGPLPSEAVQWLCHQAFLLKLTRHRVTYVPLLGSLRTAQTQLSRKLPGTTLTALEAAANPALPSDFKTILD

MDA-MB-231 [12] = assay: Induction of senescence in human MDA-MB-231 cells at 0 to 1.5 uM measured after 48 hrs by SA-beta-gal assay; type: functional, cell-based; details: dose 0-1.5 µM
MDA-MB-231 [13] = assay: Induction of cell cycle arrest in human MDA-MB-231 cells assessed as accumulation of cells at S phase at 0.5 to 1.5 uM measured after 48 hrs by 7-aminoactinomycin D/RNase staining based flow cytometry analysis (reference value: 23.4%); type: functional; details: dose 0.5-1.5 µM
MDA-MB-231 [14] = assay: Inhibition of hTERT expression in human MDA-MB-231 cells assessed as reduction in pink foci in nucleus at 0.5 uM incubated for 48 hrs in presence of TBHP at 200 uM by immunofluorescence analysis; type: functional, cell-based
MDA-MB-231 [15] = assay: Disruption of energy metabolism in human MDA-MB-231 cells assessed as reduction in cellular energy production by measuring reduction in ATP production at 0 to 1.5 uM measured after 2 hrs by Seahorse XF24 analyzer; type: functional, cell-based; details: dose 0-1.5 µM
MDA-MB-231 [16] = assay: Induction of autophagy in human MDA-MB-231 cells assessed as upregulation of LC3-II protein expression at 0 to 1.5 uM measured after 48 hrs by Western blot analysis; type: functional, cell-based; details: dose 0-1.5 µM
[17] = Upregulation of PLK1 gene expression in human MDA-MB-231 cells assessed as fold change at 1 uM measured after 48 hrs by RNA-seq analysis relative to control; type: functional
[18] = Upregulation of SKP2 gene expression in human MDA-MB-231 cells assessed as fold change at 1 uM measured after 48 hrs by RNA-seq analysis relative to control; type: functional
[19] = Upregulation of S1PR1 gene expression in human MDA-MB-231 cells assessed as fold change at 1 uM measured after 48 hrs by RNA-seq analysis relative to control; type: functional
[20] = Upregulation of EGF gene expression in human MDA-MB-231 cells assessed as fold change at 1 uM measured after 48 hrs by RNA-seq analysis relative to control; type: functional
[21] = Upregulation of HLA-B gene expression in human MDA-MB-231 cells assessed as fold change at 1 uM measured after 48 hrs by RNA-seq analysis relative to control; type: functional
[22] = Upregulation of HLA-E gene expression in human MDA-MB-231 cells assessed as fold change at 1 uM measured after 48 hrs by RNA-seq analysis relative to control; type: functional
[23] = Upregulation of RRAS gene expression in human MDA-MB-231 cells assessed as fold change at 1 uM measured after 48 hrs by RNA-seq analysis relative to control; type: functional
[24] = Upregulation of CDKN1A gene expression in human MDA-MB-231 cells assessed as fold change at 1 uM measured after 48 hrs by RNA-seq analysis relative to control; type: functional
[25] = Upregulation of HLA-F gene expression in human MDA-MB-231 cells assessed as fold change at 1 uM measured after 48 hrs by RNA-seq analysis relative to control; type: functional
[26] = Upregulation of HMOX1 gene expression in human MDA-MB-231 cells assessed as fold change at 1 uM measured after 48 hrs by RNA-seq analysis relative to control; type: functional
[27] = Toxicity in female Balb/c nude mouse xenografted with human MDA-MB-231 cells assessed as signs of discomfort at 2 to 5 mg/kg, iv administered via tail vein every 2 days for 16 days; type: organism-based; details: in vivo, 384 h, dose 2-5 mg/kg, time 16 day
MDA-MB-231 [28] = assay: Antitumor activity against human MDA-MB-231 cells xenografted in female Balb/c mouse assessed as reduction in tumor weight at 5 mg/kg, iv administered via tail vein every 2 days for 16 days relative to control; type: functional; design: scale not given: the % may be the effect or the level left; details: time 16 day
[29] = Toxicity in female Balb/c nude mouse xenografted with human MDA-MB-231 cells assessed as change in AST level at 2 to 5 mg/kg, iv administered via tail vein every 2 days for 16 days; type: organism-based; details: in vivo, 384 h, dose 2-5 mg/kg, time 16 day
[30] = Toxicity in female Balb/c nude mouse xenografted with human MDA-MB-231 cells assessed as change in mean corpuscular volume at 2 to 5 mg/kg, iv administered via tail vein every 2 days for 16 days; type: organism-based; details: in vivo, 384 h, dose 2-5 mg/kg, time 16 day
[31] = Toxicity in female Balb/c nude mouse xenografted with human MDA-MB-231 cells assessed as change in mean corpuscular hemoglobin at 2 to 5 mg/kg, iv administered via tail vein every 2 days for 16 days; type: organism-based; details: in vivo, 384 h, dose 2-5 mg/kg, time 16 day
[32] = Toxicity in female Balb/c nude mouse xenografted with human MDA-MB-231 cells assessed as change in platelet count at 2 to 5 mg/kg, iv administered via tail vein every 2 days for 16 days; type: organism-based; details: in vivo, 384 h, dose 2-5 mg/kg, time 16 day
[33] = Toxicity in female Balb/c nude mouse xenografted with human MDA-MB-231 cells assessed as pathological changes in kidney at 2 to 5 mg/kg, iv administered via tail vein every 2 days for 16 days by H and E staining based analysis; type: organism-based; details: in vivo, 384 h, dose 2-5 mg/kg, time 16 day

Compound: C[n+]1c(/C=C/c2c[nH]c3ccccc23)cc(/C=C2\Sc3ccccc3N2CCCN2CCC(C(F)(F)F)CC2)c2ccccc21.[I-]
- ΔTm (DNA): 1.01 °C
- IC50 (PC-3): 2.5 µM
- ΔTm (Quadruplex DNA [1]): 0.96 °C
- Kd (Quadruplex DNA [2]): 14.7 µM
- deltaH (Quadruplex DNA [3]): -2.44 kcal/mol
- Kd (Quadruplex DNA [4]): 3.28 µM
- deltaH (Quadruplex DNA [5]): -1.09 kcal/mol
- ΔTm (Homo sapiens): 8.82 °C
- deltaH (Quadruplex DNA [6]): -2.72 kcal/mol
- deltaG (Quadruplex DNA [7]): -8.11 kcal/mol
- Selectivity ratio [8]: 2
- Activity (Quadruplex DNA [9]): Active
- Activity (MDA-MB-231 [10]): Dose-Dependent Effect
- inhibition [11]: Active
- Activity (MDA-MB-231 [12]): Active
- Activity (MDA-MB-231 [13]): 4.6%
- inhibition (MDA-MB-231 [14]): Active
- Activity (MDA-MB-231 [15]): Active
- Activity (MDA-MB-231 [16]): Active
- fold change (FC) [17]: >2
- fold change (FC) [18]: >2
- fold change (FC) [19]: >2
- fold change (FC) [20]: >2
- fold change (FC) [21]: >2
- fold change (FC) [22]: >2
- fold change (FC) [23]: >2
- fold change (FC) [24]: >2
- fold change (FC) [25]: >2
- fold change (FC) [26]: >2
- Activity [27]: Non-Toxic
- Activity (MDA-MB-231 [28]): 78.7%
- Activity [29]: Non-Toxic
- Activity [30]: Non-Toxic
- Activity [31]: Non-Toxic
- Activity [32]: Non-Toxic
- Activity [33]: Non-Toxic
